Data reported in publication PMC12118597 (Science Advances, 2025).
Read-outs that look alike come from different tables or passages of the source.

Biological target: SARS-CoV-2 NSP3 macrodomain (Mac1) (Severe acute respiratory syndrome coronavirus 2, UniProt P0DTD1)
Format: binding
Details: for Total number of conformations: ligand conformations modeled in the crystal structure; for 2*(1-BDC) (%): occupancy estimate from PanDDA
[1] = PanDDA background density correction factor
[2] = TRUE = crystal structure with ligand obtained
[3] = crystal soak 10 mM, P43 crystal form
[4] = refined crystallographic occupancy
[5] = site of ligand in X-ray crystal structure
[6] = event 1, soak concentration 10 mM
[7] = PanDDA background density correction, 1-BDC
[8] = TRUE = ligand-bound crystal structure obtained (PDB code given)
[9] = crystal soak concentration 20 mM
[10] = crystal soak concentration 20 mM, event 1
[11] = crystal soak concentration 20 mM, P43 crystals
[12] = crystal soak, P43 crystals, soak concentration 10 mM
[13] = crystal soak, P43 crystals, soak concentration 10 mM for the hits shown
[14] = site of Mac1 occupied in the X-ray crystal structure (Adenosine or Distal)
[15] = ligand-bound crystal structure obtained (TRUE)
[16] = site occupied in X-ray crystal structure
[17] = crystal soak 10 mM, TFA/DMSO background map

SMILES | Occupancy difference (refined_occupancy - 2*(1-BDC)) | 1-BDC [1] | X-ray crystal structure [2] | PanDDA run, overall: Hit [3] | PanDDA run, overall: Modeled [3] | PanDDA run, DMSO background map: 1-BDC (crystal soak 10 mM) | PanDDA run, DMSO background map: Hit (crystal soak 10 mM) | Total number of conformations | 2*(1-BDC) (%) | Refined ligand occupancy (%) [4] [%] | Binding site [5] | other results
OCC(Nc1ncnc2[nH]ccc12)C1CCC1 (stereo not shown) [AVI-3638] | 0 | 0.13 | TRUE | TRUE | TRUE | 0.13 | TRUE | 1 | 26 | 26 | Adenosine | 
CC(C)n1nnnc1SCc1c(C(=O)O)sc2cccc(F)c12 [AVI-291] |  |  |  |  |  |  |  |  | 68 |  |  | PanDDA run, DMSO background map: 1-BDC [6]: 0.25; PanDDA run, DMSO background map: Hit (soak concentration 10 mM): TRUE; 1-BDC [7]: 0.34; X-ray crystal structure [8]: TRUE; Hit (PanDDA run, DMSO background map) [9]: TRUE; Modeled (PanDDA run, DMSO background map) [9]: TRUE; 1-BDC (PanDDA run, DMSO background map) [10]: 0.34; Hit (PanDDA run, overall) [11]: TRUE; Modeled (PanDDA run, overall) [11]: TRUE; Modeling comment (PanDDA run, overall) [11]: Second ligand conformation, not modeled, DMSO x2; PanDDA run, overall: Modeling comment [12]: Duplicate, not modeled; PanDDA run, overall: Hit [13]: TRUE; Refined ligand occupancy (%) (crystallographic refinement): 68%; Binding site [14]: Adenosine
CC(C)(C)C1CCCN1c1ncnc2[nH]ccc12 (stereo not shown) [AVI-6000] |  |  |  |  |  |  |  |  | 14 |  |  | 1-BDC [7]: 0.07; Refined ligand occupancy (%) (crystallographic refinement): 14%; X-ray crystal structure [15]: TRUE; Binding site [16]: Adenosine
OCC(Cc1ccccn1)Nc1ncnc2[nH]ccc12 (stereo not shown) [AVI-3696] | 14 | 0.13 | TRUE | TRUE | TRUE | 0.13 | TRUE | 2 | 26 | 40 | Adenosine | 
CC(C)(C)[C@@H]1CCN(c2ncnc3[nH]ccc23)[C@H](CO)C1 [AVI-3722] | 0 | 0.11 |  | TRUE |  | 0.11 | TRUE | 1 | 22 | 22 |  | X-ray crystal structure [15]: TRUE; Binding site [16]: Adenosine
OCC(CC1CCCCC1)Nc1ncnc2[nH]ccc12 (stereo not shown) [AVI-3690] | 0 | 0.12 | TRUE | TRUE | TRUE | 0.12 | TRUE | 1 | 24 | 24 | Adenosine | PanDDA run, overall: Modeling comment [3]: Weak density for alternative ligand conformation
OCC1COCCN1c1ncnc2[nH]ccc12 (stereo not shown) [AVI-3717] | 0 | 0.14 |  | TRUE |  | 0.14 | TRUE | 2 | 28 | 28 |  | X-ray crystal structure [15]: TRUE; Binding site [16]: Adenosine
CC(C)(C)C(O)CC(CO)Nc1ncnc2[nH]ccc12.O=C(O)C(F)(F)F (stereo not shown) [AVI-3714] |  |  |  |  |  |  |  |  |  |  |  | PanDDA run, overall: Modeling comment (crystal soak 10 mM): TFA only
OCC(CC1CCCC1)Nc1ncnc2[nH]ccc12 (stereo not shown) [AVI-3691] | -16 | 0.18 | TRUE | TRUE | TRUE | 0.18 | TRUE | 1 | 36 | 20 | Adenosine | 
Cc1nn(C)cc1C1CC[C@H](CO)N1c1ncnc2[nH]ccc12 (stereo partly shown) [AVI-3733] | 20 | 0.1 |  | TRUE | TRUE | 0.1 | TRUE | 1 | 20 | 40 |  | X-ray crystal structure [15]: TRUE; Binding site [16]: Adenosine
Cc1ccc(CC(CO)Nc2ncnc3[nH]ccc23)cc1 (stereo not shown) [AVI-3683] | 20 | 0.15 | TRUE | TRUE | TRUE | 0.15 | TRUE | 2 | 30 | 50 | Adenosine | 
O=C(O)C(F)(F)F.OCC1(Nc2ncnc3[nH]ccc23)CC1 [AVI-3688] | 20 | 0.2 | TRUE | TRUE | TRUE | 0.2 | TRUE | 1 | 40 | 60 | Adenosine | 
OCC(CC1OCCO1)Nc1ncnc2[nH]ccc12 (stereo not shown) [AVI-3658] | 0 | 0.2 | TRUE | TRUE | TRUE | 0.2 | TRUE | 1 | 40 | 40 | Adenosine | 
O=C(O)C(F)(F)F.OCC(Nc1ncnc2[nH]ccc12)C1CCCO1 (stereo not shown) [AVI-3645] |  |  |  | TRUE |  | 0.22 | TRUE |  |  |  |  | PanDDA run, overall: Modeling comment [3]: Weak density, not modeled; PanDDA run, TFA/DMSO background map: 1-BDC [17]: 0.12; PanDDA run, TFA/DMSO background map: Hit [17]: TRUE
O=C(O)C(c1ccccc1)n1sc2ccccc2c1=O (stereo not shown) [AVI-288] |  |  |  |  |  |  |  |  | 74 |  |  | PanDDA run, DMSO background map: 1-BDC [6]: 0.26; PanDDA run, DMSO background map: Hit (soak concentration 10 mM): TRUE; 1-BDC [7]: 0.37; X-ray crystal structure [8]: TRUE; Hit (PanDDA run, DMSO background map) [9]: TRUE; Modeled (PanDDA run, DMSO background map) [9]: TRUE; 1-BDC (PanDDA run, DMSO background map) [10]: 0.37; Hit (PanDDA run, overall) [11]: TRUE; Modeled (PanDDA run, overall) [11]: TRUE; PanDDA run, overall: Modeling comment [12]: Duplicate, not modeled; PanDDA run, overall: Hit [13]: TRUE; Refined ligand occupancy (%) (crystallographic refinement): 74%; Binding site [14]: Adenosine
OCC(Cc1cncs1)Nc1ncnc2[nH]ccc12 (stereo not shown) [AVI-3703] | 0 | 0.15 | TRUE | TRUE |  | 0.15 | TRUE | 1 | 30 | 30 | Adenosine | 
